Measurements: patent US9695155B2, “Herbicidal substituted pyrimidinyloxy benzene compounds” (E. I. DU PONT DE NEMOURS AND COMPANY, priority 2013, dated 2017)

Experiments:
barnyardgrass [1] = assay: Test B flooded paddy test; format: in vivo, Echinochloa crus-galli; conditions: Flood, 250 g ai/ha; 0 to 100 scale where 0 is no effect and 100 is complete control
Procedure, shortened: (§1)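 Plants at 2-leaf stage; pots flooded to 3 cm above soil and compound applied directly into paddy water, depth held throughout. After 13 to 15 days in greenhouse, visual rating versus controls on 0 (no effect) to 100 (complete control) scale.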

velvetleaf = assay: Test A postemergence; format: in vivo, Abutilon theophrasti
Procedure, shortened: (§2)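 Compounds in non-phytotoxic solvent with surfactant applied as soil spray preemergence, or postemergence to plants 2-10 cm at one- to two-leaf stage, in loam/sand. After approximately 10 days in greenhouse, injury rated visually versus untreated controls, 0 (no effect) to 100 (complete control).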

wheat, winter = assay: Test C preemergence; format: in vivo, Triticum aestivum; conditions: for Wheat plant response rating: preemergence, scale 0 (no effect) to 100 (complete control)
Procedure, shortened: (§3)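 Seeds were sown in loam–sand blend and sprayed preemergence, while plants at 1- to 4-leaf stage (2–18 cm) in peat-based medium received postemergence sprays; test chemicals were formulated in a non-phytotoxic solvent with surfactant. After 13–15 days in a greenhouse, injury was rated visually against controls, 0 (no effect) to 100 (complete control).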

rice = assay: Test B flooded paddy test; format: in vivo, Oryza sativa; conditions: Flood, 250 g ai/ha; 0 to 100 scale where 0 is no effect and 100 is complete control
Procedure, shortened: as §1

ragweed = assay: Test C postemergence; format: in vivo, Ambrosia elatior; conditions: for Plant response rating (0 to 100), Ragweed: postemergence; for Plant response rating, Ragweed: Postemergence, scale 0 to 100 (0 no effect, 100 complete control)
Procedure, shortened: as §3

morningglory [2] = assay: Test A preemergence; format: in vivo, Ipomoea spp.
Procedure, shortened: as §2

blackgrass = assay: Test C postemergence; format: in vivo, Alopecurus myosuroides; conditions: for Plant response rating (0 to 100), Blackgrass: postemergence; for Plant response rating, Blackgrass: Postemergence, scale 0 to 100 (0 no effect, 100 complete control)
Procedure, shortened: as §3

pigweed [3] = assay: Test A postemergence; format: in vivo, Amaranthus retroflexus
Procedure, shortened: as §2

morningglory [4] = assay: Test C preemergence; format: in vivo, Ipomoea coccinea; conditions: for Morningglory plant response rating: preemergence, scale 0 (no effect) to 100 (complete control)
From the text: Seeds of plant species selected from blackgrass (Alopecurus myosuroides), Italian ryegrass (Lolium multiflorum), wheat, winter (winter wheat, Triticum aestivum), galium (catchweed bedstraw, Galium aparine), corn (Zea mays), large (Lg) crabgrass (Digitaria sanguinalis), giant foxtail (Setaria faberii), johnsongrass (Sorghum halepense), lambsquarters (Chenopodium album), morningglory (Ipomoea coccinea), yellow nutsedge (Cyperus esculentus), pigweed (Amaranthus retroflexus), ragweed (common ragweed, Ambrosia elatior), soybean (Glycine max), barnyardgrass (Echinochloa crus-galli), oilseed rape (Brassica napus), waterhemp (common waterhemp, Amaranthus rudis), kochia (Kochia scoparia), wild oat (Avena fatua), surinam grass (Brachiaria decumbens), foxtail, green (green foxtail, Setaria viridis), goosegrass (Eleusine indica), bromegrass, downy (downy bromegrass, Bromus tectorum), nightshade (eastern black nightshade, Solanum ptycanthum), cocklebur (common cocklebur, Xanthium strumarium), cupgrass, woolly (woolly cupgrass, Eriochloa villosa), bermudagrass (Cynodon dactylon), sunflower, (common oilseed sunflower, Helianthus annuus), Russian thistle (Salsola kali), and velvetleaf (Abutilon theophrasti) were planted into a blend of loam soil and sand and treated preemergence with test chemicals formulated in a non-phytotoxic solvent mixture which included a surfactant.
At the same time, plants selected from these crop and weed species and also barley, winter (winter barley, Hordeum vulgare), windgrass (Apera spica-venti), chickweed (common chickweed, Stellaria media), deadnettle (henbit deadnettle, Lamium amplexicaule), and canarygrass (littleseed canarygrass, Phalaris minor) were planted in pots containing Redi-Earth® planting medium (Scotts Company, 14111 Scottslawn Road, Marysville, Ohio 43041) comprising spaghnum peat moss, vermiculite, wetting agent and starter nutrients and treated with postemergence applications of test chemicals formulated in the same manner. Plants ranged in height from 2 to 18 cm (1- to 4-leaf stage) for postemergence treatments. Treated plants and controls were maintained in a greenhouse for 13 to 15 days, after which time all species were compared to controls and visually evaluated. Plant response ratings, summarized in Table C, are based on a scale of 0 to 100 where 0 is no effect and 100 is complete control. A dash (-) response means no test result.

barnyardgrass [5] = assay: Test A postemergence; format: in vivo, Echinochloa crus-galli
Procedure, shortened: as §2

large (Lg) crabgrass = assay: Test C postemergence; format: in vivo, Digitaria sanguinalis; conditions: for Plant response rating (0 to 100), Crabgrass, Large: postemergence; for Plant response rating, Crabgrass, Large: Postemergence, scale 0 to 100 (0 no effect, 100 complete control)
Procedure, shortened: as §3

pigweed [6] = assay: Test A preemergence; format: in vivo, Amaranthus retroflexus
Procedure, shortened: as §2

soybean = assay: Test C preemergence; format: in vivo, Glycine max; conditions: for Soybean plant response rating: preemergence, scale 0 (no effect) to 100 (complete control)
Procedure, shortened: as §3

[7] = 125 g ai/ha, 0 to 100 scale where 0 is no effect and 100 is complete control
[8] = 500 g ai/ha, 0 to 100 scale, 0 no effect, 100 complete control
[9] = Preemergence, 31 g ai/ha, scale 0 to 100, 0 no effect, 100 complete control
[10] = 500 g ai/ha, 0 to 100 scale, 0 no effect, 100 complete control, approx. 10 days

For `FC(F)(F)c1cnn(-c2ccccc2Oc2ncc(Cl)cn2)c1` [Compound 16], the “Plant response rating, Barnyardgrass” value (barnyardgrass [1]) was 40, the “Plant response rating, Velvetleaf” value (velvetleaf; [7]) was 100 and the “Plant response rating, Velvetleaf” value (velvetleaf; [8]) was 100. The “Wheat plant response rating” value (wheat, winter; 62 g ai/ha) was 0, the “Wheat plant response rating” value (wheat, winter; 125 g ai/ha) was 35 and the “Wheat plant response rating” value (wheat, winter; 250 g ai/ha) was 60. The “Plant response rating, Wheat” value (wheat, winter; [9]) was 0, the “Plant response rating, Rice” value (rice) was 40 and the “Plant response rating (0 to 100), Ragweed” value (ragweed; 125 g ai/ha) was 40. The “Plant response rating (0 to 100), Ragweed” value (ragweed; 250 g ai/ha) was 90, the “Plant response rating, Ragweed” value (ragweed; 31 g ai/ha, 13 to 15 days) was 15 and the “Plant response rating, Ragweed” value (ragweed; 62 g ai/ha) was 30. The “Morningglory plant response rating” value (morningglory [2]; [7]) was 30, the “Morningglory plant response rating” value (morningglory [2]; [10]) was 90 and the “Plant response rating (0 to 100), Blackgrass” value (blackgrass; 125 g ai/ha) was 30. The “Plant response rating (0 to 100), Blackgrass” value (blackgrass; 250 g ai/ha) was 70, the “Plant response rating, Blackgrass” value (blackgrass; 31 g ai/ha, 13 to 15 days) was 5 and the “Plant response rating, Blackgrass” value (blackgrass; 62 g ai/ha) was 30. For the same molecule, the “Plant response rating, Pigweed” value (pigweed [3]; [7]) was 100, the “Plant response rating, Pigweed” value (pigweed [3]; [8]) was 100 and the “Morningglory plant response rating” value (morningglory [4]; 62 g ai/ha) was 75. The “Morningglory plant response rating” value (morningglory [4]; 125 g ai/ha) was 90, the “Morningglory plant response rating” value (morningglory [4]; 250 g ai/ha) was 98 and the “Plant response rating, Morningglory” value (morningglory [4]; [9]) was 10. The “Plant response rating, Barnyardgrass” value (barnyardgrass [5]; [7]) was 60, the “Plant response rating, Barnyardgrass” value (barnyardgrass [5]; [8]) was 100 and the “Plant response rating (0 to 100), Crabgrass, Large” value (large (Lg) crabgrass; 125 g ai/ha) was 30. For the same molecule, the “Plant response rating (0 to 100), Crabgrass, Large” value (large (Lg) crabgrass; 250 g ai/ha) was 85, the “Plant response rating, Crabgrass, Large” value (large (Lg) crabgrass; 31 g ai/ha, 13 to 15 days) was 10 and the “Plant response rating, Crabgrass, Large” value (large (Lg) crabgrass; 62 g ai/ha) was 20. The “Pigweed plant response rating” value (pigweed [6]; [7]) was 100, the “Pigweed plant response rating” value (pigweed [6]; [10]) was 100 and the “Soybean plant response rating” value (soybean; 62 g ai/ha) was 90. The “Soybean plant response rating” value (soybean; 125 g ai/ha) was 90, the “Soybean plant response rating” value (soybean; 250 g ai/ha) was 90 and the “Plant response rating, Soybean” value (soybean; [9]) was 75.
